Measurements reported in patent publication US6506766B1 (Abbott Laboratories, priority 1998, dated 2003).

Legend:
[1] = target: T1, human glucocorticoid receptor-α [GRX] isoform (Homo sapiens, UniProt P04150); test: Radioligand binding with human glucocorticoid receptor cytosol ([3H]-dexamethasone competition); details: GRX cytosol expressed in insect SF21 cells, [3H]-Dex ~0.9 nM, 4° C. overnight; Ki by Cheng-Prusoff, KL ~[…]; read-out: Ki (nM) GR
T1 construct: host or cells: insect SF21 cells (baculovirus)
T1 sequence (P04150 1-777): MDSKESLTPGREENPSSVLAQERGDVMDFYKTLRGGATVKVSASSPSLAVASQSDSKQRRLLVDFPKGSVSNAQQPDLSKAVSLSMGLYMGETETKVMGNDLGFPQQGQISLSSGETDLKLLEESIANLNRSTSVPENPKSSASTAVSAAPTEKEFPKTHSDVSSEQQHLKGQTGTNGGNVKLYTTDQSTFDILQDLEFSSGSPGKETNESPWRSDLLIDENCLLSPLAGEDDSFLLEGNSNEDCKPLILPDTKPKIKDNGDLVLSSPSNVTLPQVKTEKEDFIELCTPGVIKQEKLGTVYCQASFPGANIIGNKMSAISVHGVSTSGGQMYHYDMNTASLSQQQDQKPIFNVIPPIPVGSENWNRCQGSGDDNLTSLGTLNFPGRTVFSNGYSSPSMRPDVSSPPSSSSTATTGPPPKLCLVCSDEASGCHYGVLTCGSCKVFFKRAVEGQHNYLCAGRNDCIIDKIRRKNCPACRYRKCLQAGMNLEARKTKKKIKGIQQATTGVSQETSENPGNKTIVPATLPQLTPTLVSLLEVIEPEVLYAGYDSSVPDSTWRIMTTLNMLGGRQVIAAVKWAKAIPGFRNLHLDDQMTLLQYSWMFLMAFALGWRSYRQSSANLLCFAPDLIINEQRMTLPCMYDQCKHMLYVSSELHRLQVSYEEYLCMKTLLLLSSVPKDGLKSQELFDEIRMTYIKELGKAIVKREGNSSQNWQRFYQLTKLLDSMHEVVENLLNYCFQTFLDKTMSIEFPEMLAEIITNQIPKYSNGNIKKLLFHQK

[2] = target: T2, human progesterone receptor-A [PRA] isoform (Homo sapiens, UniProt P06401); test: Radioligand binding with human progesterone receptor cytosol ([3H]-progesterone competition); details: PRA cytosol expressed in insect SF21 cells, [3H]Prog ~0.8 nM, 4° C. overnight; Ki by Cheng-Prusoff, KL ~4.5 nM; read-out: Ki (nM) PR
T2 construct: host or cells: insect SF21 cells (baculovirus)
T2 sequence (P06401 1-769 isoform P06401-2): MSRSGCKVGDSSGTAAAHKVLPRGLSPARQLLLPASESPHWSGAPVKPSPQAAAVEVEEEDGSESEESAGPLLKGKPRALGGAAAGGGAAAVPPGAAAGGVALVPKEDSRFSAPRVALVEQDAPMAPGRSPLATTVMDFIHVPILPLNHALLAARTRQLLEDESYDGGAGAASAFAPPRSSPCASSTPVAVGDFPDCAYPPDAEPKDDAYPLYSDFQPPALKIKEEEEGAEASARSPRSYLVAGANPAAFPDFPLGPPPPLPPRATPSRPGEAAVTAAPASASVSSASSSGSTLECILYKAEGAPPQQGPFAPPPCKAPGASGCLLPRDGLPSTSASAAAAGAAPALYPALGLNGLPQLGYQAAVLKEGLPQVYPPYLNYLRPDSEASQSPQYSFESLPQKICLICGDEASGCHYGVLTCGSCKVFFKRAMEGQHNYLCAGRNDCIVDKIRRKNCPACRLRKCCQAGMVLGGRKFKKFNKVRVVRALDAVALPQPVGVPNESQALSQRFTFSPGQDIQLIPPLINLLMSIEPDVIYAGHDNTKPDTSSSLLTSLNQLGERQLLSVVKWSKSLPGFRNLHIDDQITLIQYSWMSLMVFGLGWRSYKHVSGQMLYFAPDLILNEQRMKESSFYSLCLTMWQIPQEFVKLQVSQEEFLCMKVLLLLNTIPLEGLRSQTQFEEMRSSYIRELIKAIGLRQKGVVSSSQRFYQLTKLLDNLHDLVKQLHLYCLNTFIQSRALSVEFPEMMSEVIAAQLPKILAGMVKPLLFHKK

Row | SMILES | Ki [1] | Ki [2]
1 | COc1cccc2c1-c1ccc3c(c1C(c1ccc(OCc4ccccc4)cc1)O2)C(C)=CC(C)(C)N3 (centres unmarked) [Example 98, 2,5-Dihydro-10-methoxy-2,2,4-trimethyl-5-[4-(phenylmethoxy)phenyl]-1H-[1]benzopyranol[3,4-f]quinoline] | 9.8 nM | ≥ 10000 nM
2 | COCOc1cccc(C2Oc3cccc(OC)c3-c3ccc4c(c32)C(C)=CC(C)(C)N4)c1 (centres unmarked) [Example 99] | 3.6 nM | ≥ 10000 nM
3 | COc1cccc2c1-c1ccc3c(c1C(c1cccc(OC(=O)N4CCOCC4)c1)O2)C(C)=CC(C)(C)N3 (centres unmarked) [Example 100, [(2,5-Dihydro-10-methoxy-2,2,4-trimethyl-1H-[1]benzopyrano[3,4-f]quinolin-5-yl)phenyl]1-morpholinecarboxylate] | 7.8 nM | ≥ 10000 nM
4 | COc1cccc2c1-c1ccc3c(c1C(c1cccc(OC[S+](C)[O-])c1)O2)C(C)=CC(C)(C)N3 (centres unmarked) [Example 101, 2,5-Dihydro-10-methoxy-2,2,4-trimethyl-5-[3-[(methylsulfinyl)methoxy]phenyl]-1H-[1]benzopyrano[3,4-f]quionline] | 11.4 nM | ≥ 10000 nM
5 | COc1cccc2c1-c1ccc3c(c1C(c1cccc(SC)c1)O2)C(C)=CC(C)(C)N3 (centres unmarked) [Example 103] | 5.2 nM | ≥ 10000 nM
6 | COC(=S)Oc1cccc(C2Oc3cccc(OC)c3-c3ccc4c(c32)C(C)=CC(C)(C)N4)c1 (centres unmarked) [Example 104, O-[3-(2,5-Dihydro-10-methoxy-2,2,4-trimethyl-1H-[1]benzopyrano[3,4-f]quinolin-5-yl)phenyl]methylcarbonothioate] | 8.9 nM | ≥ 10000 nM
7 | COc1cccc2c1-c1ccc3c(c1C(c1cccc(OS(=O)(=O)C(F)(F)F)c1)O2)C(C)=CC(C)(C)N3 (centres unmarked) [Example 105] | 9 nM | > 10000 nM
8 | COc1cccc2c1-c1ccc3c(c1C(c1cccc(C4=NC(C)(C)CO4)c1)O2)C(C)=CC(C)(C)N3 (centres unmarked) [Example 106] | 62 nM | > 10000 nM
9 | CCOC(=O)c1cccc(C2Oc3cccc(OC)c3-c3ccc4c(c32)C(C)=CC(C)(C)N4)c1 (centres unmarked) [Example 107] | 215 nM | > 10000 nM
10 | COc1cccc2c1-c1ccc3c(c1C(c1cccc(C(=O)O)c1)O2)C(C)=CC(C)(C)N3 (centres unmarked) [Example 108, 3-(2,5-Dihydro-10-methoxy-2,2,4-trimethyl-1H-[1]benzopyrano[3,4-f]quinolin-5-yl)benzoic Acid] | 638 nM | > 10000 nM
11 | C=CCc1cc(C)cc(C2Oc3cccc(OC)c3-c3ccc4c(c32)C(C)=CC(C)(C)N4)c1 (centres unmarked) [Example 109, 2,5-Dihydro-10-methoxy-2,2,4-trimethyl-5-[3-methyl-5-(2-propenyl)phenyl]-1H-[1]benzopyrano[3,4-f]quinoline] | 6.1 nM | ≥ 10000 nM
12 | COc1cccc2c1-c1ccc3c(c1C(c1cc(C)cc(C(C)=O)c1)O2)C(C)=CC(C)(C)N3 (centres unmarked) [Example 110, 1-[3-(2,5-Dihydro-10-methoxy-2,2,4-trimethyl-1H-[1]benzopyrano[3,4-f]quinolin-5-yl)-5-methylphenyl]ethanone] | 5.6 nM | ≥ 10000 nM
13 | COc1cccc2c1-c1ccc3c(c1C(c1cc(C)cc(C(C)(C)O)c1)O2)C(C)=CC(C)(C)N3 (centres unmarked) [Example 111, 3-(2,5-Dihydro-10-methoxy-2,2,4-trimethyl-1H-[1benzopyrano3,4-f]quinolin-5-yl)5-trimethylbenzenemethanol] | 7.2 nM | ≥ 10000 nM
14 | COc1cccc2c1-c1ccc3c(c1C(c1cccc(-c4ccco4)c1)O2)C(C)=CC(C)(C)N3 (centres unmarked) [Example 112, 5-[3-(2-Furanyl)phenyl]-2,5-dihydro-10-methoxy-2,2,4-trimethyl-1H-[1]benzopyrano[3,4-f]quinoline] | 31 nM | ≥ 10000 nM
15 | COc1cccc2c1-c1ccc3c(c1C(c1cc(C)cc(N4CCCC4)c1)O2)C(C)=CC(C)(C)N3 (centres unmarked) [Example 113, 2,5-Dihydro-10-methoxy-2,2,4-trimethyl-5-[3-methyl-5-(1H-pyrrolidin-1-yl)phenyl]1H-[1]benzopyrano[3,4-f]quinoline] | 9.7 nM | ≥ 10000 nM
16 | C=CCNc1cc(C)cc(C2Oc3cccc(OC)c3-c3ccc4c(c32)C(C)=CC(C)(C)N4)c1 (centres unmarked) [Example 115] | 17 nM | ≥ 10000 nM
17 | COCCNc1cc(C)cc(C2Oc3cccc(OC)c3-c3ccc4c(c32)C(C)=CC(C)(C)N4)c1 (centres unmarked) [Example 116, 3-(2,5-Dihydro-10-methoxy-2,2,4-trimethyl-1H-[1]benzopyrano[3,4-f]quinolin-5-yl)-N-(2-methoxyethyl)-5-methylbenamine] | 7.2 nM | ≥ 10000 nM
18 | COc1cccc2c1-c1ccc3c(c1C(c1cc(C)cc(NC(=O)N(C)C)c1)O2)C(C)=CC(C)(C)N3 (centres unmarked) [Example 118, N′-[3-(2,5-Dihydro-10-methoxy-2,2,4-trimethyl-1H-1benzopyrano[3,4-f]quinolin-5-yl)-5-methylphenyl]-N,N-dimethylurea] | 43 nM | ≥ 10000 nM
19 | COc1cccc2c1-c1ccc3c(c1C(c1cccc(NCc4ccccc4)c1)O2)C(C)=CC(C)(C)N3 (centres unmarked) [Example 119, N-[3-(2,5-Dihydro-10-methoxy-2,2,4-trimethyl-1H-[1]benzopyrano[3,4-f]quinolin-5-yl)phenyl]benzenemethanamine] | 6.9 nM | ≥ 10000 nM
20 | COc1cccc2c1-c1ccc3c(c1C(=Cc1cc(Cl)cc(Cl)c1)O2)C(C)=CC(C)(C)N3 [Example 120, 5-[(3,5-dichlorphenyl)methylen]-2,5-dihydro-10-methoxy-2,2,4-trimethyl-1H-[1]benzopyrano[3,4-f]puinoline] | 30.3 nM | 6240 nM
21 | COc1cccc2c1-c1ccc3c(c1C(=Cc1ccc(Cl)cc1)O2)C(C)=CC(C)(C)N3 [Example 121, 5-[(4-chlorophenyl)methylene]-2,5-dihydro-10-methoxy-2,2,4-trimethyl-1H-[1]benzopyrano[3,4-f]quinoline] | 11.3 nM | 672 nM
22 | COc1cccc2c1-c1ccc3c(c1C(=Cc1cccc(C(F)(F)F)c1)O2)C(C)=CC(C)(C)N3 [Example 122, 2,5-Dihydro-10-methoxy-2,2,4-trimethyl-5-[[3-(trifluoromethyl)phenyl]methylene-]1H-[1]-benzopyrano[3,4-f]quinoline] | 11.8 nM | 1410 nM
23 | COc1cccc2c1-c1ccc3c(c1C(=Cc1c(F)cccc1F)O2)C(C)=CC(C)(C)N3 [Example 123] | 6.1 nM | 9570 nM
24 | COc1cccc2c1-c1ccc3c(c1C(=Cc1ccccc1Cl)O2)C(C)=CC(C)(C)N3 [Example 124] | 3.2 nM | 1610 nM
25 | COc1cccc2c1-c1ccc3c(c1C(=Cc1c(Cl)cccc1Cl)O2)C(C)=CC(C)(C)N3 [Example 125] | 36.6 nM | ≥ 10000 nM
26 | COc1cccc2c1-c1ccc3c(c1C(=Cc1ccccc1F)O2)C(C)=CC(C)(C)N3 [Example 126] | 2.9 nM | 1410 nM
27 | COc1cccc2c1-c1ccc3c(c1C(=CC1=NC(C)(C)CO1)O2)C(C)=CC(C)(C)N3 [Example 127, 2,5-Dihydro-10-methoxy-2,2,4-trimethyl-5-[(4,5-dihydro-4,4-dimethyl-2-oxazolyl)methylene]-1H-[1]benzopyrano[3,4-f]quinoline] | 29.3 nM | ≥ 10000 nM
28 | COc1cccc2c1-c1ccc3c(c1C(=Cc1ccccn1)O2)C(C)=CC(C)(C)N3 [Example 128, 2,5-Dihydro-10-methoxy-2,2,4-trimethyl-5-(2-pyridinylmethylene)-1H-[1]benzopyrano[3,4-f]quinoline] | 5.9 nM | ≥ 10000 nM
